Data reported in US12577201B2, “Glutamine analogs” (Jacobio Pharmaceuticals Co., Ltd., priority 2020, dated 2026).

Key:
[1] = Stability in liver microsomes, monkey; type: in vitro ADME; settings: 60 minutes, read-out: In vitro Clint
Method: (§1) For metabolic stability, microsomes from human, monkey, dog, rat and mouse were used. For stability, prodrugs (1 μM) were spiked in each microsomes matrix and incubated in an orbital shaker at 37° C. Aliquots of 50 μL were taken from the reaction solution at 0, 15, 30, 45 and 60 min. The reaction was stopped by the addition of 4 volumes of cold acetonitrile with IS (100 nM alprazolam, 200 nM labetalol, 200 nM caffeine and 2 μM ketoprofen). Samples were centrifuged at 3, 220 g for 40 minutes. Aliquot of 100 μL of the supernatant was mixed with 100 μL of ultra-pure H2O and then used for LC-MS/MS analysis.
(§2) For LC-MS/MS, prodrugs were analyzed on an API 4000 instrument from AB Inc (Canada) with an ESI interface coupled to Shimadzu LC system on an Waters XSelect HSS T3 C18, 2.5 m, 2.1×30 mm column.
(§3) For data analysis, peak areas were determined from extracted ion chromatograms. The slope value, k, was determined by linear regression of the natural logarithm of the remaining percentage of the parent drug vs. incubation time curve. The in vitro half-life (in vitro t1/2) was determined from the slope value: in vitro t1/2=−(0.693/k)
(§4) Conversion of the in vitro t1/2 (min) into the in vitro intrinsic clearance (in vitro CLint, in μL/min/mg protein) was done using the following equation (mean of duplicate determinations): […]

[2] = Plasma stability, swine plasma; settings: 1 μM, 37° C., 4 hours
Method: (§5) For metabolic stability, plasma from dog, monkey, swine and human were used. For stability, prodrugs (1 μM) were spiked in respective solutions and incubated in an orbital shaker at 37° C. 50 μL aliquots of the mixture in duplicate were removed, and the reaction quenched by addition of four times the volume of ice cold acetonitrile spiked with the internal standard (Dexamethasone 100 ng/mL). […] 100 μL of the supernatant was diluted with 100 μL of water and transferred to the 0.6 mL plastic tubes on 96-well plate. Prodrug disappearance was monitored over time using a liquid chromatography and tandem mass spectrometry (LC-MS/MS).
(§6) For LC-MS/MS, prodrugs were analyzed on a ExionLC AD HPLC system coupled to REF Triple Quad 5500+ mass spectrometer with an ESI interface on an Phenomenex Kinetex 5 m C18 100A (2.1*50) mm UPLC column. The autosampler was temperature controlled and was operated at 4° C. The mobile phase used for the chromatographic separation was composed of acetonitrile/water containing 0.10% formic acid and will run at a flow rate of 0.6 mL/min for 3.5 min using gradient elution. The column effluent was monitored using […], equipped with an electrospray probe set in the positive ionization mode. Samples were introduced into the ionization source through a heated nebulized probe (400° C.). Disappearance of prodrugs will be measured from ratio of peak areas of analyte to IS.
(§7) For quantification of compound remaining, disappearance of prodrugs was measured from ratio of peak areas of analyte to IS.

[3] = Plasma stability, monkey plasma; settings: 1 μM, 37° C., 4 hours
Method: as §5, §6, §7

[4] = system: MC38 tumor cells; test: Anti-tumor efficacy in MC38 syngeneics in C57BL/6 mouse (Example 9); type: in vivo; settings: C57BL/6, MC38, 2 μmol/kg S.C. QD; for T/C (%) / TGI (%) / TV (mm^3) (Mean ± SEM) D21 / TV (mm^3) at D21 (Mean ± SEM): D21; for TV (mm^3) at D21 (Mean ± SEM): Table 5
Method: Animal species: Mus musculus; Strain: C57BL/6; Age: 6-8 weeks; Sex: female.
(§8) The MC38 tumor cells were maintained in vitro in DMEM medium supplemented with 10% FBS at 37° C., 5% CO2. The cells growing in an exponential growth phase were harvested and counted for tumor inoculation. The culture MC38 were harvested, re-suspended in PBS containing 50% Matrigel at a density of 1×10^7 cells/mL. Each mouse was inoculated subcutaneously in the right flank region with 1×10^6 cells in 0.1 mL of PBS containing 50% Matrigel for tumor development.
The treatments were started when the mean tumor size reached 79-118 mm^3 (average tumor size 96 mm^3). Each group contained 8 tumor bearing mice. Group 1 was treated with Vehicle (10% DMSO+90% Saline), S.C., QD.
(§9) In vivo efficacy was examined according to absolute tumor growth inhibition (TGI) and the safety was evaluated according to weight change and survival in mice.
(§10) Statistical analysis of difference in tumor volume among the groups was performed using one-way ANOVA followed by individual comparisons using Games-Howell post-hoc test (equal variance not assumed). All data was analyzed using SPSS 22.0 software.

[5] = Stability in liver microsomes, mouse; type: in vitro ADME; settings: 60 minutes, read-out: In vitro Clint
Method: as §1, §2, §3, §4

[6] = Plasma stability, human plasma; settings: 1 μM, 37° C., 4 hours
Method: as §5, §6, §7

[7] = Stability in liver microsomes, rat; type: in vitro ADME; settings: 60 minutes, read-out: In vitro Clint
Method: as §1, §2, §3, §4

[8] = Stability in liver microsomes, dog; type: in vitro ADME; settings: 60 minutes, read-out: In vitro Clint
Method: as §1, §2, §3, §4

[9] = system: MC38 tumor cells; test: Anti-tumor efficacy in MC38 model in CES1c -/- mouse (Example 10); type: in vivo; settings: for TV (mm^3) (Mean ± SEM) D6 / TV (mm^3) (Mean ± SEM) D9 / TV (mm^3) (Mean ± SEM) D12 / TV (mm^3) (Mean ± SEM) D15 / TV (mm^3) (Mean ± SEM) D20 / TV (mm^3) (Mean ± SEM) D23 / T/C (%) / TGI (%) / TV (mm^3) (Mean ± SEM) D26: MC38, 2 μmol/kg S.C. QD; for T/C (%) / TGI (%) / TV (mm^3) (Mean ± SEM) D26 / TV (mm^3) at D26 (Mean ± SEM): D26; for TV (mm^3) at D26 (Mean ± SEM): Table 9, MC38, 2 μmol/kg S.C. QD
Method: as §8, with “Animal species: Mus musculus; Strain: C57BL/6-Ces1c^emISmoc; Age: 6-8 weeks; Sex: female. (Shanghai Model Organisms). The MC38” for “The MC38”, “with 1×10^6 in 0.1” for “with 1×10^6 cells in 0.1”
The treatments were started when the mean tumor size reached 52-132 mm^3 (average tumor size 95 mm^3). Each group contained 5 tumor bearing mice. Group 1 was treated with Vehicle (10% DMSO+90% Saline), S.C., QD(Subcutaneous injection, quaque die).
as §9, §10

[10] = Stability in liver microsomes, human; type: in vitro ADME; settings: 60 minutes, read-out: In vitro Clint
Method: as §1, §2, §3, §4

With `CO[C@@H](C)C(=O)N[C@@H](CCC(=O)C=[N+]=[N-])C(=O)OC(C)C` [Compound 2, isopropyl (S)-6-diazo-2-((S)-2-methoxypropanamido)-5-oxohexanoate] the microsomal CLint at 1 μM [1] was 31.8 µL/min/mg, the “plasma stability (compound remaining)” value [2] was “substantially intact” and the “plasma stability (compound remaining)” value [3] was “substantially intact”. For the same compound, the “TV (mm^3) (Mean ± SEM) D6” value [4] was 96 ± 4 mm^3, the “TV (mm^3) (Mean ± SEM) D10” value [4] was 141 ± 9 mm^3 and the “TV (mm^3) (Mean ± SEM) D14” value [4] was 140 ± 10 mm^3. The “TV (mm^3) (Mean ± SEM) D18” value [4] was 180 ± 13 mm^3, the “T/C (%)” value [4] was 9.5% and the “TGI (%)” value [4] was 90.5%. The “TV (mm^3) (Mean ± SEM) D21” value [4] was 263 ± 32 mm^3, the “TV (mm^3) (Mean ± SEM) D25” value [4] was 381 ± 55 mm^3 and the “TV (mm^3) (Mean ± SEM) D28” value [4] was 496 ± 62 mm^3. For the same compound, the “TV (mm^3) (Mean ± SEM) D31” value [4] was 617 ± 56 mm^3, the “TV (mm^3) at D21 (Mean ± SEM)” value [4] was 263 ± 32 mm^3 and the microsomal CLint at 1 μM [5] was 67.1 µL/min/mg. For the same compound, the “plasma stability (compound remaining)” value [6] was “substantially intact”, the microsomal CLint at 1 μM [7] was 62.4 µL/min/mg and the microsomal CLint at 1 μM [8] was 12.7 µL/min/mg. The “TV (mm^3) (Mean ± SEM) D6” value [9] was 95 ± 11 mm^3, the “TV (mm^3) (Mean ± SEM) D9” value [9] was 193 ± 20 mm^3 and the “TV (mm^3) (Mean ± SEM) D12” value [9] was 103 ± 15 mm^3. For the same compound, the “TV (mm^3) (Mean ± SEM) D15” value [9] was 131 ± 21 mm^3, the “TV (mm^3) (Mean ± SEM) D20” value [9] was 169 ± 19 mm^3 and the “TV (mm^3) (Mean ± SEM) D23” value [9] was 219 ± 21 mm^3. The “T/C (%)” value [9] was 14.0%, the “TGI (%)” value [9] was 86.0% and the “TV (mm^3) (Mean ± SEM) D26” value [9] was 313 ± 35 mm^3. The “TV (mm^3) at D26 (Mean ± SEM)” value [9] was 313 ± 35 mm^3 and the microsomal CLint at 1 μM [10] was 43.4 µL/min/mg.
For `CC(=O)N[C@@H](Cc1c[nH]c2ccccc12)C(=O)N[C@@H](CCC(=O)C=[N+]=[N-])C(=O)OC(C)C` [Reference compound A, reference compound], the microsomal CLint at 1 μM [1] was 393 µL/min/mg, the “plasma stability (compound remaining)” value [2] was “substantially intact” and the “plasma stability (compound remaining)” value [3] was “substantially intact”. The “TV (mm^3) (Mean ± SEM) D6” value [4] was 96 ± 4 mm^3, the “TV (mm^3) (Mean ± SEM) D10” value [4] was 148 ± 6 mm^3 and the “TV (mm^3) (Mean ± SEM) D14” value [4] was 196 ± 25 mm^3. The “TV (mm^3) (Mean ± SEM) D18” value [4] was 297 ± 48 mm^3, the “T/C (%)” value [4] was 14.4% and the “TGI (%)” value [4] was 85.6%. For the same compound, the “TV (mm^3) (Mean ± SEM) D21” value [4] was 399 ± 74 mm^3, the “TV (mm^3) (Mean ± SEM) D25” value [4] was 680 ± 143 mm^3 and the “TV (mm^3) (Mean ± SEM) D28” value [4] was 928 ± 153 mm^3. For the same compound, the “TV (mm^3) (Mean ± SEM) D31” value [4] was 1358 ± 213 mm^3, the “TV (mm^3) at D21 (Mean ± SEM)” value [4] was 399 ± 74 mm^3 and the microsomal CLint at 1 μM [5] was 153 µL/min/mg. The “plasma stability (compound remaining)” value [6] was “substantially intact”, the microsomal CLint at 1 μM [7] was 95.2 µL/min/mg and the microsomal CLint at 1 μM [8] was 60.4 µL/min/mg. For the same compound, the “TV (mm^3) (Mean ± SEM) D6” value [9] was 95 ± 6 mm^3, the “TV (mm^3) (Mean ± SEM) D9” value [9] was 275 ± 33 mm^3 and the “TV (mm^3) (Mean ± SEM) D12” value [9] was 147 ± 5 mm^3. The “TV (mm^3) (Mean ± SEM) D15” value [9] was 195 ± 23 mm^3, the “TV (mm^3) (Mean ± SEM) D20” value [9] was 196 ± 33 mm^3 and the “TV (mm^3) (Mean ± SEM) D23” value [9] was 183 ± 33 mm^3. The “T/C (%)” value [9] was 12.3%, the “TGI (%)” value [9] was 87.7% and the “TV (mm^3) (Mean ± SEM) D26” value [9] was 274 ± 81 mm^3. The “TV (mm^3) at D26 (Mean ± SEM)” value [9] was 274 ± 81 mm^3 and the microsomal CLint at 1 μM [10] was 119 µL/min/mg.
